Source: patent US20240059711A1, “Cereblon Ligands and Uses Thereof” (REGENTS OF THE UNIVERSITY OF MICHIGAN, priority 2022, published 2024)

Tests used:
[1] = target: GST-tagged wild-type human CRBN protein (Homo sapiens (Human), UniProt Q96SW2); test: Cereblon binding assay (CRBN TR-FRET, Cisbio Cereblon Binding Kit); settings: XL665-labelled Thalidomide tracer, about 3 hours at room temperature
Experimental: The binding to cereblon (CRBN) was determined using the Cereblon Binding Kit (Cisbio, #64BDCRBNPEG) following the manufacturer's instruction. Briefly, serially diluted compounds were incubated with GST-tagged wild-type human CRBN protein, XL665-labelled Thalidomide and Europium Cryptate labelled GST antibody at room temperature for about 3 hours. Time Resolved Fluorescence Resonance Energy Transfer (TR-FRET) measurements were acquired on a CALRIOstar plate reader with MARS data analysis software (BMG Labtech), with the following settings: 665/10 nm and 620/10 nm emission, 60 μs delay and 400 μs integration. The TR-FRET ratio was taken as the 665/620 nm intensity ratio.

T47D cell line = test: Cell growth inhibition in T47D cell line; assay type: cell-based; settings: Homo sapiens
ER = ER (Homo sapiens (Human), UniProt P03372); test: In-Cell Western (ICW) ER degradation assay in MCF-7 and T47D cell lines; assay type: cell-based; settings: ER level by In-Cell Western, 16 hrs treatment; MCF-7 and T47D described, cell line not given
Experimental: Subsequently, cells were blocked with Intercept (PBS) Blocking Buffer (Li-COR, Odyssey Blocking Buffer), and were stained with ER (1:500, Cell signaling) primary antibody for overnight at cold room. • Day 4: Remove the buffer, add IRDye 800CW Goat anti-Rabbit IgG Secondary Antibody (1:2000) and CellTag 700 Stain (1:500) in Intercept (PBS) Blocking Buffer. Finally, cell plate is placed in incubator to dry. Image and signal were captured on Odyssey® DLx Imaging System.
In-cell western blot analysis. a. seed cells in black-sided/clear bottom 96- or 384-well plates at 40,000 or 10,000 cells/well, overnight; b. add diluted compounds (final 0.5% DMSO), 16 hours. 16 h later, remove medium, add 100 μL or 25 μL of 3.7-4.0% formaldehyde (PBS:FA=9:1), RT 20 min, no shaking; c. wash with PBS, and permeabilized with 100 μL or 25 μL/well of 1×PBS+0.1% Triton X-100 10 minutes; d. block with 100 μL or 25 μL Licor blocking buffer (Li-Cor), RT 1 h, moderate shaking; d. Add 100 μL or 25 μL of anti-ER (cs-8644, 1:500-1,000)+GAPDH (Millipore MAB374, 1:1000) in Block+0.05% Tween 20. RT 2 h, gentle shaking.
Negative control: cells plus secondary antibodies (no primary antibodies); e. wash ×4 with PBS+0.05-0.1% Tween 20, gentle shaking; f. anti-rabbit-680 and anti-mouse-800 (both 1:1000 in LiCor block+0.05% Tween20, RT 1 h, gentle shaking, no light. LI-COR: 0.2% to reduce background; g. wash ×4 with PBS+0.05% Tween 20, gentle shaking; h. add 100 μL or 25 μL of PBS to each well and read on CLX plate reader. The relative ER percentage in treated cells were obtained by comparing the values of treated wells to those in untreated and DMSO-treated wells as 100%.

Sequence of GST-tagged wild-type human CRBN protein (Q96SW2 whole entry): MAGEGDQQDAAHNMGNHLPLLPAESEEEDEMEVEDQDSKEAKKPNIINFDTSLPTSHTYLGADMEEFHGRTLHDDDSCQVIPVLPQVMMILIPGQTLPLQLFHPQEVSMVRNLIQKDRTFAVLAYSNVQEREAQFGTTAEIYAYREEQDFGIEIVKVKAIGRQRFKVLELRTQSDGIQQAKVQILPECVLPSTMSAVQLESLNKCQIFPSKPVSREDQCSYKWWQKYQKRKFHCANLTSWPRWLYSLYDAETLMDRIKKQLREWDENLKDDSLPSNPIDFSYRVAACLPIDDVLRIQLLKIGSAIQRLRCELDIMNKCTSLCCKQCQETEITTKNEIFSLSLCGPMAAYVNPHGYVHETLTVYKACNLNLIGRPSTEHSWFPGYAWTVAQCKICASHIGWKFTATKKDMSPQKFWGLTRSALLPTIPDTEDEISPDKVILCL
Sequence of ER (P03372 whole entry): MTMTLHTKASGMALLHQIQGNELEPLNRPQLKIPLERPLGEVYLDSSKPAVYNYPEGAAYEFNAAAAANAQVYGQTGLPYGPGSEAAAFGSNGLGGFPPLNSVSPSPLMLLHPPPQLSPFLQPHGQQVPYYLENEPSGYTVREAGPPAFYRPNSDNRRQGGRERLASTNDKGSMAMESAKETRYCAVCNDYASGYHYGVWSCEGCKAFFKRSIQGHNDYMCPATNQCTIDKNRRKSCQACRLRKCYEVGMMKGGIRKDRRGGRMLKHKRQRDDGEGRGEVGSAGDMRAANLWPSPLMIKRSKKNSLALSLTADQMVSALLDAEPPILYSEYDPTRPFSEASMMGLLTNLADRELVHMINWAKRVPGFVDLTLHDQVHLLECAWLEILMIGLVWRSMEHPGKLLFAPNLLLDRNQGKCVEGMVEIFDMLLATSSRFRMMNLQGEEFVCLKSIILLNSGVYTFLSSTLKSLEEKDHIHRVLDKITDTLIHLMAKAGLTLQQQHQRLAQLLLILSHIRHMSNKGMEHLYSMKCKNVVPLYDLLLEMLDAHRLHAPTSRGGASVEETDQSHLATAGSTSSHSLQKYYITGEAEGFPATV

| SMILES | IC50 [1] [nM] | IC50 (T47D cell line) [nM] | DC50 (ER) [nM] |
| --- | --- | --- | --- |
| O=C1CC[C@H](N2Cc3c(ccc4c3OCC(COCc3ccccc3)O4)C2=O)C(=O)N1 (stereo in doubt) [Compound B1, (S)-3-((S)-3-((benzyloxy)methyl)-7-oxo-2,3,7,9-tetrahydro-8H-[1,4]dioxino[2,3-e]isoindol-8-yl)piperidine-2,6-dione] | 300 |  |  |
| O=C1CCC(N2Cc3c(ccc4c3OC[C@H](COCc3ccccc3)N4)C2=O)C(=O)N1 (stereo partly drawn) [Compound B5, 3-((S)-3-((benzyloxy)methyl)-7-oxo-3,4,7,9-tetrahydro-[1,4]oxazino[2,3-e]isoindol-8(2H)-yl)piperidine-2,6-dione] | 120 |  |  |
| O=C1CC[C@H](N2Cc3c(ccc4c3O[C@@H](CO)CO4)C2=O)C(=O)N1 [Compound B6, (S)-3-((S)-2-(hydroxymethyl)-7-oxo-2,3,7,9-tetrahydro-8H-[1,4]dioxino[2,3-e]isoindol-8-yl)piperidine-2,6-dione] | 540 |  |  |
| O=C1CC[C@H](N2Cc3c(ccc4c3O[C@H](CO)CO4)C2=O)C(=O)N1 [Compound B7, (S)-3-((R)-2-(hydroxymethyl)-7-oxo-2,3,7,9-tetrahydro-8H-[1,4]dioxino[2,3-e]isoindol-8-yl)piperidine-2,6-dione] | 510 |  |  |
| O=C1CC[C@H](N2Cc3cc4c(cc3C2=O)OC[C@H](COCc2ccccc2)O4)C(=O)N1 [Compound B12, (S)-3-((S)-2-((benzyloxy)methyl)-6-oxo-2,3,6,8-tetrahydro-7H-[1,4]dioxino[2,3-f]isoindol-7-yl)piperidine-2,6-dione] | 3000 |  |  |
| O=C1CCC(N2C(=O)c3cc4c(cc3C2=O)OC(CO)CO4)C(=O)N1 (stereo not shown) [Compound B15, 7-(2,6-dioxopiperidin-3-yl)-2-(hydroxymethyl)-2,3-dihydro-6H-[1,4]dioxino[2,3-f]isoindole-6,8(7H)-dione] | 7890 |  |  |
| O=C1CC[C@H](N2Cc3c(ccc4c3OC[C@@H](CN3CCC5(CC3)CCN(c3ccc([C@@H]6c7ccc(O)cc7CC[C@@H]6c6ccccc6)cc3)CC5)O4)C2=O)C(=O)N1 [THP-B370] |  | 1 to 10 | > 100 |
| O=C1CC[C@H](N2Cc3c(ccc4c3OC[C@H](CN3CCC5(CC3)CCN(c3ccc([C@@H]6c7ccc(O)cc7CC[C@@H]6c6ccccc6)cc3)CC5)O4)C2=O)C(=O)N1 [THP-B392] |  | 1 to 10 |  |

Now from value to compound:

| IC50 [1] [nM] | IC50 (T47D cell line) [nM] | DC50 (ER) [nM] | SMILES |
| --- | --- | --- | --- |
| 410 |  |  | O=C1CC[C@H](N2Cc3c(ccc4c3OCC(CO)O4)C2=O)C(=O)N1 (stereo in doubt) [Compound B2, (S)-3-((S)-3-(hydroxymethyl)-7-oxo-2,3,7,9-tetrahydro-8H-[1,4]dioxino[2,3-e]isoindol-8-yl)piperidine-2,6-dione] |
| 120 |  |  | O=C1CC[C@H](N2Cc3c(ccc4c3OC[C@H](COCc3ccccc3)O4)C2=O)C(=O)N1 [Compound B3, (S)-3-((S)-3-((benzyloxy)methyl)-7-oxo-2,3,7,9-tetrahydro-8H-[1,4]dioxino[2,3-e]isoindol-8-yl)piperidine-2,6-dione] |
| 310 |  |  | O=C1CC[C@H](N2Cc3c(ccc4c3OC[C@H](CO)O4)C2=O)C(=O)N1 [Compound B4, (S)-3-((S)-3-(hydroxymethyl)-7-oxo-2,3,7,9-tetrahydro-8H-[1,4]dioxino[2,3-e]isoindol-8-yl)piperidine-2,6-dione] |
| 1000 |  |  | O=C1CCC(N2Cc3c(ccc4c3O[C@H](CO)CO4)C2=O)C(=O)N1 (stereo partly drawn) [Compound B8, 3-((R)-2-(hydroxymethyl)-7-oxo-2,3,7,9-tetrahydro-8H-[1,4]dioxino[2,3-e]isoindol-8-yl)piperidine-2,6-dione] |
| 3100 |  |  | O=C1CC[C@H](N2Cc3cc4c(cc3C2=O)OC[C@H](CO)O4)C(=O)N1 [Compound B11, (S)-3-((S)-2-(hydroxymethyl)-6-oxo-2,3,6,8-tetrahydro-7H-[1,4]dioxino[2,3-f]isoindol-7-yl)piperidine-2,6-dione] |
| 3100 |  |  | O=C1CCC(N2C(=O)c3cc4c(cc3C2=O)O[C@@H](COCc2ccccc2)CO4)C(=O)N1 (stereo partly drawn) [Compound B13, (2S)-2-((benzyloxy)methyl)-7-(2,6-dioxopiperidin-3-yl)-2,3-dihydro-6H-[1,4]dioxino[2,3-f]isoindole-6,8(7H)-dione] |
| 5160 |  |  | O=C1CCC(N2C(=O)c3cc4c(cc3C2=O)O[C@@H](COCc2ccccc2)CO4)C(=O)N1 (stereo partly drawn) [Compound B14, (2S)-2-((benzyloxy)methyl)-7-(2,6-dioxopiperidin-3-yl)-2,3-dihydro-6H-[1,4]dioxino[2,3-f]isoindole-6,8(7H)-dione] |
|  | < 1 | 10 to 100 | O=C1CC[C@H](N2Cc3c(ccc4c3OC[C@@H](CN3CC5(CCN(c6ccc([C@@H]7c8ccc(O)cc8CC[C@@H]7c7ccccc7)cc6)CC5)C3)O4)C2=O)C(=O)N1 [THP-B375] |
|  |  | > 100 | O=C1CC[C@H](N2Cc3c(ccc4c3OC[C@H](CN3CCC5(CC3)CCN(c3ccc([C@@H]6c7ccc(O)cc7CC[C@@H]6c6ccccc6)cc3)CC5)O4)C2=O)C(=O)N1 [THP-B387] |
|  | 1 to 10 | > 100 | O=C1CCC(N2Cc3cc4c(cc3C2=O)OC[C@H](CN2CCC3(CC2)CCN(c2ccc([C@@H]5c6ccc(O)cc6CC[C@@H]5c5ccccc5)cc2)CC3)O4)C(=O)N1 (stereo partly drawn) [THP-B391, 3-((S)-2-((9-(4-((1R,2S)-6-hydroxy-2-phenyl-1,2,3,4-tetrahydronaphthalen-1-yl)phenyl)-3,9-diazaspiro[5.5]undecan-3-yl)methyl)-6-oxo-2,3,6,8-tetrahydro-7H-[1,4]dioxino[2,3-f]isoindol-7-yl)piperidine-2,6-dione] |
|  | < 1 |  | O=C1CC[C@H](N2Cc3c(ccc4c3OC[C@H](CN3CC5(CCN(c6ccc([C@@H]7c8ccc(O)cc8CC[C@@H]7c7ccccc7)cc6)CC5)C3)O4)C2=O)C(=O)N1 [THP-B393] |
